# Measurements as given in PubChem BioAssay AID1508612.
# “And” between values parts separate entries of the source, which are not always exact repeats. Equal entries are not always repeated.
# Test: passive permeability, PAMPA, ADME assay (AID 1508612)
# Settings: pH 7.4, 30.0 min, 50.0 µM
row,SMILES,Papp
1,O=C1CCCC2=C1C(c1[nH]ncc1Cl)N=C(Nc1nc3cc([S+](=O)([O-])N4CCCC4)ccc3o1)N2 (centres undefined),47 ×10⁻⁶ cm/s
2,CCOC(=O)c1c(NC(=O)CN2CCCCC2)sc2c1CCN(C(=O)OCC)C2,> 1000 ×10⁻⁶ cm/s
3,CN=C1CN=C(c2ccc[nH]2)c2cc(Cl)ccc2N1,354 ×10⁻⁶ cm/s and > 1000 ×10⁻⁶ cm/s
4,Cc1ccc(C)c(CN2CCC(CNC(=O)Nc3ccc(Br)cc3F)CC2)c1,> 1000 ×10⁻⁶ cm/s
5,O=C(Nc1ccccc1-c1cn2c(CN3CCNCC3)csc2n1)c1cnc2ccccc2n1,239 ×10⁻⁶ cm/s
6,CCN(CC)C(=O)c1ccc2c(c1)ncn2-c1cccc(C)c1,889 ×10⁻⁶ cm/s
7,COCCOc1cnc2ccn([C@H](C)c3nnc4c(F)cc(-c5cnn(C)c5)cn34)c(=O)c2c1,15.1 ×10⁻⁶ cm/s
8,CCOC(=O)c1c(C)c(-c2ccccc2)n(CC(=O)NCc2ccccc2)c1C,> 1000 ×10⁻⁶ cm/s
9,CCOC(=O)C1CCN(C(=O)C2(NC(=O)Nc3ccccc3Cl)CCC2)CC1,266 ×10⁻⁶ cm/s
10,O=C(Nc1ccc(N2CCN(C(=O)c3ccccc3F)CC2)cc1)c1cncc(Br)c1,> 1000 ×10⁻⁶ cm/s
11,Oc1ccc(-c2nc(C3CC3)nc3c2CCN(Cc2ccc(F)cc2)CC3)cc1,> 1000 ×10⁻⁶ cm/s
12,C=C1[C@@H](C)C2[C@H](Cc3ccccc3)NC(=O)[C@@]23C(/C=C/C[C@H](C)C[C@@](C)(O)/C=C/[C@@H]3OC(C)=O)[C@@H]1O (some centres undefined),50 ×10⁻⁶ cm/s
13,CCc1ccc(-n2nnc(-c3nsc(NC(=O)c4ccccc4Cl)n3)c2C)cc1,615 ×10⁻⁶ cm/s
14,COc1ccccc1C(=O)Nc1ccccc1C(=O)Nc1cccc(S(=O)(=O)C(F)(F)F)c1,7.6 ×10⁻⁶ cm/s
15,FC(F)(F)c1cccc(N2CCN(C(=S)Nc3ccccn3)CC2)c1,> 1000 ×10⁻⁶ cm/s
16,O=C(Nc1nc(-c2ccccc2)cs1)c1ccncc1NS(=O)(=O)c1ccc(F)cc1F,798 ×10⁻⁶ cm/s
17,O=S(=O)(Nc1nccs1)c1ccc(NCc2cccc(Br)c2O)cc1,72.7 ×10⁻⁶ cm/s
18,Cn1c(=O)c2cc(C(=O)NCCCN3CCN(c4ccccc4F)CC3)sc2c2ccccc21,> 1000 ×10⁻⁶ cm/s
19,COC(=O)Nc1nc2ccc(C(=O)c3ccccc3)cc2[nH]1,282 ×10⁻⁶ cm/s
20,Cc1ccnc(C)c1C(=O)Nc1cccc([S+](=O)([O-])N(C)C)c1,98.5 ×10⁻⁶ cm/s
21,CC(=O)NCc1ccc(-c2csc(Nc3cc(C)cc(C)c3)n2)o1,> 1000 ×10⁻⁶ cm/s
22,Fc1ccc(-c2ccc(Nc3nc(-c4ccncc4)nc4ccccc34)cc2F)c(Cl)c1,20.9 ×10⁻⁶ cm/s
23,NC(=O)C1CCN(c2nc(-c3ccc(OC(F)(F)F)cc3)cs2)CC1,104 ×10⁻⁶ cm/s
24,Cc1ccc(S(=O)(=O)Nc2ccccc2C(=O)Nc2nc(-c3ccc(Cl)cc3)cs2)cc1,16.6 ×10⁻⁶ cm/s
25,NC1(c2ccccc2Cl)CCCCC1=O (centres undefined),62 ×10⁻⁶ cm/s
26,CCOC(=O)c1nc(Nc2ccc(N3CCC(C)CC3)cc2)c2ccccc2n1,> 1000 ×10⁻⁶ cm/s

row,SMILES,Papp
1,O=C(Nc1ccc2oc(-c3ccccc3F)nc2c1)c1ccc([N+](=O)[O-])o1,38.4 ×10⁻⁶ cm/s
2,COc1cccc(CNc2ccc(S(=O)(=O)Nc3cccc4ccncc34)cc2)c1O,> 1000 ×10⁻⁶ cm/s
3,CCCN1CNc2c(c(=O)[nH]c(=S)n2CCc2ccc(OC)c(OC)c2)C1,138 ×10⁻⁶ cm/s
4,Cc1ccc(C(=O)N2CCc3sc(C(=O)NC(C)c4ccccc4)cc3C2)cc1 (centres undefined),799 ×10⁻⁶ cm/s
5,CC(Nc1nc(N2CCN(S(C)(=O)=O)CC2)nc2ccccc12)c1ccccc1 (centres undefined),> 1000 ×10⁻⁶ cm/s
6,Cc1ccc(NC(=O)c2ccncc2NS(=O)(=O)c2ccc(C)cc2)cc1,245 ×10⁻⁶ cm/s
7,CCOc1ccc(CCNC(=O)c2cc3sccc3n2Cc2ccncc2)cc1OCC,> 1000 ×10⁻⁶ cm/s
8,COc1cccc(CNCc2cccn2-c2nnc(N3CCN(c4ccccc4)CC3)s2)c1,> 1000 ×10⁻⁶ cm/s
9,Nc1nc2c(s1)C(c1ccccc1OCc1ccccc1Cl)CC(=O)N2 (centres undefined),509 ×10⁻⁶ cm/s
10,CCOc1ccc(CCNC(=O)c2cc3ncccc3n2Cc2cccc(C)c2)cc1OCC,> 1000 ×10⁻⁶ cm/s
11,COC(=O)c1cc2occc2n1Cc1nc(-c2ccc(C)cc2)oc1C,40.3 ×10⁻⁶ cm/s
12,CCCCN(CC)CCCNC(=O)c1ccc2c(c1)N(Cc1ccc(C)cc1)C(=O)c1ccccc1S2,827 ×10⁻⁶ cm/s
13,COc1cccc(CNc2ccc(S(=O)(=O)Nc3nccs3)cc2)c1O,35.8 ×10⁻⁶ cm/s
14,CC(=O)c1c(C)[nH]c(C(=O)Nc2cccc([S+](=O)([O-])N3CCC(F)(F)CC3)c2)c1C,> 1000 ×10⁻⁶ cm/s
15,Cc1ccccc1C(=O)N1CCC(C(=O)N2CCC(N3Cc4ccccc4C3=O)CC2)CC1,50.8 ×10⁻⁶ cm/s
16,NC[C@H](O)c1ccc(O)c(O)c1,5.7 ×10⁻⁶ cm/s
17,O=C(CCS(=O)(=O)c1nc(-c2cccs2)cc(C(F)(F)F)n1)Nc1ccc(OC(F)(F)F)cc1,5.76 ×10⁻⁶ cm/s
18,Cc1cc(C)nc(NC(=S)N2CCN(c3cc(C(F)(F)F)nc4ccc(C(F)(F)F)cc34)CC2)c1,636 ×10⁻⁶ cm/s
19,Cc1ccc2c(c1)/C(=C\c1cc(Cl)c(O)c(Cl)c1)C(=O)N2,97.5 ×10⁻⁶ cm/s
20,COC(=O)c1ccc([C@H]2c3[nH]c4ccccc4c3C[C@H](C(=O)OC)N2C(=O)CCl)cc1,> 1000 ×10⁻⁶ cm/s
21,CCOC(=O)N1CCN(Cc2nc3c(c(=O)n(C)c(=O)n3C)n2Cc2cccc(C)c2)CC1,477 ×10⁻⁶ cm/s
22,CN(C)c1cccc(-c2cc(N3CCC(C(N)=O)CC3)ncn2)c1,37.8 ×10⁻⁶ cm/s
23,CCCCCCCCc1ccc(CCC(N)(CO)CO)cc1,5.3 ×10⁻⁶ cm/s
24,C[C@@]1(C(=O)Nc2ccc(F)nc2)CCCN1c1nc(Nc2cc(C3CC3)[nH]n2)c2cccn2n1,780 ×10⁻⁶ cm/s
25,Fc1ccc(Nc2nc(-c3ccncc3)nc3ccccc23)cc1F,376 ×10⁻⁶ cm/s
26,O=C(NC1CCN(c2cc(-c3ccc(Cl)cc3)[nH]n2)C1)c1ccccc1 (centres undefined),706 ×10⁻⁶ cm/s

row,SMILES,Papp
1,CCCN1C(CC(C)C)=NS(=O)(=O)c2cc(NC(=O)c3cccs3)ccc21,762 ×10⁻⁶ cm/s
2,Clc1ccccc1-c1nccc(-n2ccnc2)n1,> 1000 ×10⁻⁶ cm/s
3,Cc1cc2c(-c3cccc(O)c3)nc(-c3c(C)noc3C)cc2[nH]1,> 1000 ×10⁻⁶ cm/s
4,CCC(=O)NC(c1cccs1)c1cc([N+](=O)[O-])c2cccnc2c1O (centres undefined),36.3 ×10⁻⁶ cm/s
5,CC1(C)CCC(CN2CCN(c3ccc(C(=O)NS(=O)(=O)c4ccc(NCC5CCOCC5)c([N+](=O)[O-])c4)c(Oc4cnc5[nH]ccc5c4)c3)CC2)=C(c2ccc(Cl)cc2)C1,1.5 ×10⁻⁶ cm/s
6,O=C(Nc1ccc(S(=O)(=O)Nc2nccs2)cc1)c1ccncc1,1.4 ×10⁻⁶ cm/s
7,Cc1ccc(C(=O)N2CCc3c(nc4cc(-c5ccccc5)[nH]n4c3=O)C2)cn1,< 1 ×10⁻⁶ cm/s
8,O=C(Nc1ccc(Cl)c(S(=O)(=O)N2CCOCC2)c1)c1ccccc1,728 ×10⁻⁶ cm/s
9,O=S(=O)(Nc1nccs1)c1ccc(NCc2cccc(F)c2O)cc1,2.11 ×10⁻⁶ cm/s
10,CCc1ccc(-n2nc(C)c3c2NC(=O)CSC3c2ccccc2C)cc1 (centres undefined),707 ×10⁻⁶ cm/s
11,O=C(NCCc1ccccc1)C1CCN(c2nc(-c3ccc(Br)cc3)cs2)CC1,< 1 ×10⁻⁶ cm/s
12,CCCCOc1ccc(C(=O)N2CCC(c3n[nH]c(=O)n3-c3ccc(C)cc3)CC2)cc1,892 ×10⁻⁶ cm/s
13,O=C(Nc1cn[nH]c1-c1nc2ccc(CN3CCOCC3)cc2[nH]1)NC1CC1,5.07 ×10⁻⁶ cm/s
14,CCOc1cccc(C(=O)Nc2nc3c(s2)CC(C(C)(C)C)CC3)c1 (centres undefined),< 1 ×10⁻⁶ cm/s
15,NC(=O)C1CCN(c2nc(-c3cccc(F)c3)cs2)CC1,685 ×10⁻⁶ cm/s
16,CCc1cc(Cl)c(OC)c(C(=O)NC[C@@H]2CCCN2CC)c1O,> 1000 ×10⁻⁶ cm/s
17,Cc1ccc(S(=O)(=O)Nc2cnccc2C(=O)Nc2ccc(S(=O)(=O)Nc3nccs3)cc2)cc1,< 1 ×10⁻⁶ cm/s
18,COc1ccc(-c2nc(CS(=O)CC(=O)N3CCC4(CC3)OCCO4)c(C)o2)cc1 (centres undefined),91.7 ×10⁻⁶ cm/s
19,NC(=O)C1CCN(c2nc(-c3ccc([N+](=O)[O-])cc3)cs2)CC1,604 ×10⁻⁶ cm/s
20,CC(=O)c1c(C)[nH]c(C(=O)Nc2cccc(S(=O)(=O)N3CCOCC3)c2)c1C,475 ×10⁻⁶ cm/s
21,CCc1ccc(NC(=O)c2[nH]c(C)c(C(C)=O)c2C)cc1[S+](=O)([O-])N1CCCCCC1,227 ×10⁻⁶ cm/s
22,CCC(CC)c1cc([C@H]2CN3CC[C@H]2C[C@@H]3CNC(=O)COc2ccccc2)nc(-c2ccncc2)n1,790 ×10⁻⁶ cm/s
23,Cc1nc2ccc(Nc3nc(-c4ccncc4)nc4ccccc34)cc2s1,55.8 ×10⁻⁶ cm/s
24,O=C(Nc1ncnc2sc3c(c12)CCCCC3)c1ccco1,> 1000 ×10⁻⁶ cm/s
25,CC(=O)c1c(C)[nH]c(C(=O)Nc2cccc(S(=O)(=O)N3CCCCC3)c2)c1C,> 1000 ×10⁻⁶ cm/s
26,CCOC(=O)c1ccc(N2C(=O)c3[nH]nc(-c4ccc(OC)cc4)c3C2c2ccc(C)cc2)cc1 (centres undefined),17.7 ×10⁻⁶ cm/s

row,SMILES,Papp
1,Cc1c(-c2cccc(NC(=O)c3ccc(F)c(F)c3)c2)nc2ncccn12,908 ×10⁻⁶ cm/s
2,Fc1ccc(Cl)cc1-c1nc(Nc2ccncc2)c2nccnc2n1,> 1000 ×10⁻⁶ cm/s
3,COc1ccc(-c2csc(NC(=O)c3ccccc3NS(=O)(=O)c3ccc(C)cc3)n2)cc1,7.7 ×10⁻⁶ cm/s
4,Cc1ccc(-c2cc(C(=O)Nc3ccc(-c4nn[nH]n4)cc3)c3ccccc3n2)cc1C,4.23 ×10⁻⁶ cm/s
5,COc1ccccc1-c1cc2c(ccn2C)c(C(=O)NCC2CCN(C)C(=O)C2)n1 (centres undefined),317 ×10⁻⁶ cm/s
6,COc1cc(C(=O)N2CCN(c3cc(Cl)ccc3Cl)CC2)cc(OC)c1OC,> 1000 ×10⁻⁶ cm/s
7,Cc1cccc(N(C)c2nc3ccccc3c3nnc(C)n23)c1,> 1000 ×10⁻⁶ cm/s
8,Cc1nc([N+](=O)[O-])cn1-c1ccc([N+](=O)[O-])cc1,27.9 ×10⁻⁶ cm/s
9,CCCCN1CCC[C@H]1CNC(=O)c1cc(C#N)c2ccccc2c1OC,> 1000 ×10⁻⁶ cm/s
10,COc1ccc(/C=C2/C(=O)Nc3ccccc32)cc1O,> 1000 ×10⁻⁶ cm/s
11,COc1ccc(OCc2ccc(-c3nc(C#N)c(NC(C)c4ccccc4)o3)o2)cc1 (centres undefined),20.9 ×10⁻⁶ cm/s
12,CCN1C(=O)c2ccccc2[S@](=O)c2ccc(C(=O)NCc3ccc(C#N)cc3)cc21,872 ×10⁻⁶ cm/s
13,CNC(=O)c1cccc(-c2cnc(Nc3cccc(C(F)(F)F)c3)c3c2CCO3)c1,58.9 ×10⁻⁶ cm/s
14,Cn1c2cc(S(C)=O)sc2c2cnn(Cc3cccc(N)c3)c(=O)c21 (centres undefined),106 ×10⁻⁶ cm/s
15,O=C(Nc1cccc(C(F)(F)F)c1)c1ccccc1NC(=O)C1CCCCC1,< 1 ×10⁻⁶ cm/s
16,COc1ccc(NC(C)=O)cc1S(=O)(=O)Nc1ccc(Br)cc1,627 ×10⁻⁶ cm/s
17,Cc1cnc(-c2ccccc2C(C)C)nc1NCC1CCN(c2cccnc2)C1 (centres undefined),> 1000 ×10⁻⁶ cm/s
18,NC(=O)C1CCN(c2nc(-c3ccccc3)cs2)CC1,598 ×10⁻⁶ cm/s
19,O=C(CNC12CC3CC(CC(C3)C1)C2)c1ccc(Cl)cc1,635 ×10⁻⁶ cm/s
20,Cc1ccccc1S(=O)(=O)Nc1cnccc1C(=O)Nc1nc(-c2ccccc2)cs1,> 1000 ×10⁻⁶ cm/s
21,O=C(c1ccccc1)N1CCN(c2nc(-c3ccc(Br)cc3)cs2)CC1,743 ×10⁻⁶ cm/s
22,CCOc1ccc(CCNC(=O)c2cc3sccc3n2Cc2ccccn2)cc1OCC,> 1000 ×10⁻⁶ cm/s
23,Cc1ccnc(NC(=S)N2CC[C@@H](Nc3cccc(C(F)(F)F)c3)C2)c1,> 1000 ×10⁻⁶ cm/s
24,CCN(CC)S(=O)(=O)c1cccc(C(=O)Nc2ccc(C#N)cc2)c1,> 1000 ×10⁻⁶ cm/s
25,CC1=C[C@@H](CN2C(=O)C(C)=C(C)C2=O)[C@H](C(C)C)C[C@H]1Cc1nc2c(C)cccc2[nH]1,585 ×10⁻⁶ cm/s
26,Cn1ccc2cc(-c3csc(N4CCC(C(N)=O)CC4)n3)ccc21,823 ×10⁻⁶ cm/s
